In patent US20250222009A1, “DINUCLEAR GOLD(I) COMPLEXES FOR TREATING CANCER” (KING FAHD UNIVERSITY OF PETROLEUM AND MINERALS, priority 2024, published 2025):

Key:
[1] = test system: ALDH1; experiment: ALDH1 enzymatic activity (Aldeflour), flow cytometry; assay type: cell-based, human; conditions: A549, 24 h
Description: (§1) 2.0×10^5 A549 cells were seeded in 6-well plates in a complete medium and treated with the complex 3. Assay results were detected by flow cytometry on a BD FACSCanto II flow cytometer. Data were analyzed using BD FACSDiva v.8.0.1 software (BD Biosciences) unless otherwise indicated. Tumor cells were treated for 72 h with complex 3, then stained for 15 minutes with FITC Annexin-V (Thermo Fisher Scientific) and 7AAD (BD Pharmingen, Milan, Italy). Activated caspase-3,7 was detected using the CaspaTag Caspase-3,7 assay (Merck Millipore) after an incubation of 24 h with complex 3. For B-cell lymphoma/leukemia-2 protein (Bcl-2) and Bcl-2 associated x protein (Bax) analysis, cells were treated for 72 h with C3, then fixed and permeabilized (FIX & PERM Cell Fixation & Cell Permeabilization Kit, Life Technologies). […] The distribution of cells in different cell cycle phases was quantified using ModFit LT 4.0 software (Verity Software House, Topsham, ME, USA) (See: Sulaiman, A. A. A.; Casagrande, N.; Borghese, C.; Corona, G.; Isab, A. A.; Ahmad, S.; Aldinucci, D.; Altaf M. Design, Synthesis, and Preclinical Activity in Ovarian Cancer Models of New Phosphanegold(I)—N-Heterocyclic Carbene Complexes. J Med Chem 2022, 65, 14424-14440, which is incorporated herein by reference in its entirety). […]

[2] = test system: A549 (lung cancer cells); experiment: MTT cytotoxicity assay, A549; assay type: cell-based, human; conditions: 72 h
Description: (§2) The human epithelial ovarian cancer A2780 cell line and its cisplatin-resistant clone A2780cis were obtained from Sigma-Aldrich (Milano, Italy). A2780cis cells were continuously exposed to 1 μM cisplatin to maintain cisplatin resistance. A549 cells (Human non-small cell lung cancer), MCF7 (metastatic breast cancer), PC3 (highly aggressive metastatic prostate cancer), and MG63 (osteosarcoma) were obtained from the American Type Culture Collection (ATCC). Cells were authenticated in laboratory using the PowerPlex 16 HS System. A2780, A2780cis, and PC3 cells were cultured in RPMI-1640 medium; MG63 and MCF7 cells were cultured in DMEM, and A549 cells were cultured in F12 NUT-MIX. The culture medium contained about 10% fetal bovine serum (FBS) (Gibco, Thermo Fisher Scientific, Monza, Italy), about 1% (v/v) of penicillin (10,000 units/mL)-streptomycin (10 mg/mL), and about 1% (v/v) L-glutamine (200 mM) (all from Sigma-Aldrich). Cells were cultured at 37° C. in a 5% CO2, fully humidified atmosphere.
(§3) 2.5×10^3 (PC3, MG63, MCF7) or 4.0×10^3 (A2780, A2780cis, A549) cells were seeded in 96-well microplates in 100 μL culture medium. Cells, allowed to adhere for 24 h, were then treated in triplicate with increasing concentrations of gold compounds. Cisplatin was included as a reference drug. Cell viability was evaluated using 3-(4,5-dimethylthiazol-2-yl)-2,5-diphenyltetrazolium bromide (MTT) assay (Sigma-Aldrich) after 72 h of treatment. Half maximal inhibitory concentrations (IC50), IC25, and IC75 were calculated using the CalcuSyn software version 2 (Biosoft, Ferguson, MO, USA) (See: Chou, T. C.; Talalay, P. Quantitative Analysis of Dose-Effect Relationships: The Combined Effects of Multiple Drugs or Enzyme Inhibitors. Adv. Enzyme Regul. 1984, 22, 27-55, which is incorporated herein by reference in its entirety). Fold resistance was calculated as the ratio of the IC50 of the A2780cis to that of the parental cell line A2780. Alternatively, cell viability was assayed by crystal violet staining (See: Feoktistova, M.; Geserick, P.; Leverkus, M. Crystal Violet Assay for Determining Viability of Cultured Cells. Cold Spring Harb Protoc 2016, 2016, pdb.prot087379, which is incorporated herein by reference in its entirety). Alternatively, after drug treatment, the culture Medium was removed, cells washed, fixed, and stained, and the Crystal Violet solution lasted 20 minutes (See: Sulaiman, A. A. A.; Casagrande, N.; Borghese, C.; Corona, G.; Isab, A. A.; Ahmad, S.; Aldinucci, D.; Altaf M. Design, Synthesis, and Preclinical Activity in Ovarian Cancer Models of New Phosphanegold(I)—N-Heterocyclic Carbene Complexes. J Med Chem 2022, 65, 14424-14440, which is incorporated herein by reference in its entirety).

[3] = test system: MCF-7 (breast cancer); experiment: MTT cytotoxicity assay, MCF-7; assay type: cell-based; conditions: 72 h, mean, SD in next cell
Description: as §2, §3

[4] = test system: BAX; experiment: BAX expression, flow cytometry; assay type: cell-based, human; conditions: A549, 72 h
Description: as §1

[5] = test system: A549 cells; experiment: Annexin-V-FITC/7AAD apoptosis, flow cytometry; assay type: cell-based, human; conditions: A549, 72 h, 0.06-0.60 μM
Description: as §1

[6] = test system: NOTCH1; experiment: NOTCH1 surface expression, flow cytometry; assay type: cell-based, human; conditions: A549, 24 h
Description: as §1

[7] = test system: A2780cis (cisplatin-resistant clone of A2780); experiment: MTT cytotoxicity assay, A2780cis; assay type: cell-based, human
Description: as §2, §3

[8] = test system: CD44; experiment: CD44 surface expression, flow cytometry; assay type: cell-based, human; conditions: A549, 24 h
Description: as §1

[9] = test system: MG-63 (osteosarcoma); experiment: MTT cytotoxicity assay, MG-63; assay type: cell-based; conditions: 72 h, mean, SD in next cell
Description: as §2
2.5×10^3 (PC3, MG63, MCF7) or 4.0×10^3 (A2780, A2780cis, A549) cells were seeded in 96-well microplates in 100 μL culture medium. Cells, allowed to adhere for 24 h, were then treated in triplicate with increasing concentrations of gold compounds. Cisplatin was included as a reference drug. Cell viability was evaluated using 3-(4,5-dimethylthiazol-2-yl)-2,5-diphenyltetrazolium bromide (MTT) assay (Sigma-Aldrich) after 72 h of treatment. Half maximal inhibitory concentrations (IC50), IC25, and IC75 were calculated using the CalcuSyn software version 2 (Biosoft, Ferguson, MO, USA) (See: Chou, T. C.; Talalay, P. Quantitative Analysis of Dose-Effect Relationships: The Combined Effects of Multiple Drugs or Enzyme Inhibitors. Adv. Enzyme Regul. 1984, 22, 27-55, which is incorporated herein by reference in its entirety). Fold resistance was calculated as the ratio of the IC50 of the A2780cis to that of the parental cell line A2780. […]

[10] = test system: CD133; experiment: CD133 surface expression, flow cytometry; assay type: cell-based, human; conditions: A549, 24 h
Description: as §1

CC(C)c1cccc(C(C)C)c1-n1ccn(-c2c(C(C)C)cccc2C(C)C)[c]1=[Au-][P+](CCNCC[P+]([Au-]=[c]1n(-c2c(C(C)C)cccc2C(C)C)ccn1-c1c(C(C)C)cccc1C(C)C)(C1CCCCC1)C1CCCCC1)(C1CCCCC1)C1CCCCC1 [Complex 3, [(Au(IPr))2(C28H24P2)](PF6)2] was tested, and the ALDH1 enzymatic activity [1] was “reduced”, the “IC25 A549” value [2] was 60 nM and the “IC75 A549” value [2] was 600 nM. The IC50 ([2]; mean (SD)) was 130 nM, the IC50 [3] was 430 nM and the “pro-apoptotic BAX expression” value [4] was “induced”. For the same compound, the “percentage of Annexin-V-positive cells (early apoptosis)” value [5] was “increased in a dose-dependent manner”, the “percentage of double stained Annexin-V/7AAD-positive cells (late apoptosis)” value [5] was “increased in a dose-dependent manner” and the NOTCH1 expression [6] was “decreased in a dose-dependent manner”. For the same compound, the “Fold resistance (A2780cis/A2780)” value ([7]; IC50 A2780cis/IC50 A2780) was 2.19, the IC50 ([7]; MTT, 72 h, mean, SD in next cell) was 240 nM and the CD44 expression [8] was “decreased”. For the same compound, the IC50 [9] was 160 nM and the CD133 expression levels [10] was “reduced”.
